Experimental findings from patent publication US8618107B2 (Gilead Connecticut, Inc., priority 2010, dated 2013) are described below.

SMILES strings stand for the structures.

For this assay, the target named is Btk (Homo sapiens (Human), UniProt Q06187). In words: standard biochemical Btk Kinase Assay (Example 901).
Sequence of Btk (Q06187 whole entry): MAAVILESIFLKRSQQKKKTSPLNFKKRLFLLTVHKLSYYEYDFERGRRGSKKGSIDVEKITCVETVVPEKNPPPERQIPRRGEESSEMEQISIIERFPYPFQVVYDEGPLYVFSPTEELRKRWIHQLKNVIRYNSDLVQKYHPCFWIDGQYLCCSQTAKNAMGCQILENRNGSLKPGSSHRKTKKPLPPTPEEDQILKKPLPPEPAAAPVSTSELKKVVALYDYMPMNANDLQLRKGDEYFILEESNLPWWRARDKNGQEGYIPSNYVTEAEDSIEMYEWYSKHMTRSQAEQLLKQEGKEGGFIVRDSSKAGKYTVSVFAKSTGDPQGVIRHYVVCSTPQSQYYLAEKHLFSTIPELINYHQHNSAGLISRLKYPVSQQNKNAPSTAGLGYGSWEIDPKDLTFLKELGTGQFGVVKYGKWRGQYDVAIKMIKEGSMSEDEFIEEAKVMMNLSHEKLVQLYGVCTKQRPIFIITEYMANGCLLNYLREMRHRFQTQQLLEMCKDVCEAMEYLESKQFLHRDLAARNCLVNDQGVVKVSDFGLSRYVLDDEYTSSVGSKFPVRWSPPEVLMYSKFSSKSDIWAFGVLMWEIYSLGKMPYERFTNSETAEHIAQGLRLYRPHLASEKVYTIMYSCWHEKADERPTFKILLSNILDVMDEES

From the text: Determination of IC50 values can be accomplished using conventional techniques known in the art. In general, an IC50 can be determined by measuring the activity of a given enzyme in the presence of a range of concentrations of the inhibitor under study. The experimentally obtained values of enzyme activity then are plotted against the inhibitor concentrations used. […] Analogously, other inhibitory concentrations can be defined through appropriate determinations of activity.

Where the note is “Table 1”, `Cc1c(-c2cc(Nc3cc4n(n3)CCN(C)C4)c(=O)[nH]n2)cccc1N1CCn2c(cc3c2CCCC3)C1=O` [Example 101] had a concentration for half-maximal inhibition (IC50) of 2 nM.

`Cc1c(-c2cc(Nc3cc4n(n3)CCN(C)C4)c(=O)[nH]n2)cccc1N1CCn2c(cc3ccccc32)C1=O` [Example 102] displayed a concentration for half-maximal inhibition (IC50) (Table 1) of 22.9 nM.

`Cc1c(-c2cc(Nc3cc4n(n3)CCN(C)C4)c(=O)n(C)n2)cccc1N1Cc2c(sc3ccccc23)C1=O` [Example 103, 4-{2-Methyl-3-[1-methyl-5-({5-methyl-4H,5H,6H,7H-pyrazolo[1,5-a]pyrazin-2-yl}amino)-6-oxo-1,6-dihydropyridazin-3-yl]phenyl}-7-thia-4-azatricyclo[6.4.0.0^2,6]dodeca-1(8),2(6),9,11-tetraen-5-one] showed a 50% inhibitory concentration (IC50) (Table 1) of 3200 nM.

In turn, `Cn1cc(-c2cccc(N3CCn4c(cc5c4CCCC5)C3=O)c2CO)cc(Nc2cc(C3CC3)[nH]n2)c1=O` [Example 106, 2-(3-(5-(5-cyclopropyl-1H-pyrazol-3-ylamino)-1-methyl-6-oxo-1,6-dihydropyridin-3-yl)-2-(hydroxymethyl)phenyl)-3,4,6,7,8,9-hexahydropyrazino[1,2-a]indol-1(2H)-one] had an IC50 (Table 1) of 1 nM.

For the compound `Cn1cc(-c2cccc(N3CCn4c(cc5c4CCCC5)C3=O)c2CO)cc(Nc2ccc(N3CCOCC3)cn2)c1=O` [Example 107, 2-(2-(hydroxymethyl)-3-(1-methyl-5-(5-morpholinopyridin-2-ylamino)-6-oxo-1,6-dihydropyridin-3-yl)phenyl)-3,4,6,7,8,9-hexahydropyrazino[1,2-a]indol-1(2H)-one], the IC50 (Table 1) was 10.1 nM.

For the compound `CC(=O)N1CCn2nc(Nc3cc(-c4cccc(N5CCn6c(cc7c6CCCC7)C5=O)c4CO)cn(C)c3=O)cc2C1` [Example 108, 2-(3-(5-(5-acetyl-4,5,6,7-tetrahydropyrazolo[1,5-a]pyrazin-2-ylamino)-1-methyl-6-oxo-1,6-dihydropyridin-3-yl)-2-(hydroxymethyl)phenyl)-3,4,6,7,8,9-hexahydropyrazino[1,2-a]indol-1(2H)-one], the half-inhibitory concentration (IC50) (Table 1) came to 6.1 nM.

Regarding `Cn1cc(-c2cccc(N3CCc4c(sc5c4CCCC5)C3=O)c2CO)nc(Nc2cnn(CCO)c2)c1=O` [Example 116, 5-[3-(6-{[1-(2-Hydroxyethyl)-1H-pyrazol-4-yl]amino}-4-methyl-5-oxo-4,5-dihydropyrazin-2-yl)-2-(hydroxymethyl)phenyl)-8-thia-5-azatricyclo[7.4.0.02,7]trideca-1(9),2(7)-dien-6-one], the half-inhibitory concentration (IC50) (Table 1) was 6 nM.

With `Cn1nc(Nc2cc(-c3cccc(N4CCc5c(sc6c5CCCC6)C4=O)c3CO)nn(C)c2=O)cc1C(C)(C)O` [Example 119, 5-[2-(hydroxymethyl)-3-(5-{[5-(2-hydroxypropan-2-yl)-1-methyl-1H-pyrazol-3-yl]amino}-1-methyl-6-oxo-1,6-dihydropyridazin-3-yl)phenyl]-8-thia-5-azatricyclo[7.4.0.02,7]trideca-1(9),2(7)-dien-6-one], the IC50 (Table 1) amounted to 7 nM. The IC50 values of the last two compounds are within 1.5-fold of each other.

Turning to `Cn1cc(-c2cc(F)cc(N3CCn4c(cc5c4CCCC5)C3=O)c2CO)cc(Nc2cc3n(n2)CCOC3)c1=O` [Example 149, 2-(3-(5-(6,7-Dihydro-4H-pyrazolo[5,1-c][1,4]oxazin-2-ylamino)-1-methyl-6-oxo-1,6-dihydropyridin-3-yl)-5-fluoro-2-(hydroxymethyl)phenyl)-3,4,6,7,8,9-hexahydropyrazino[1,2-a]indol-1(2H)-one], where the note is “Table 2”, the 50% inhibitory concentration (IC50) came out at 5 nM.

In the case of `Cn1cc(-c2cc(F)cc(N3CCn4c(cc5c4CCCC5)C3=O)c2CO)cc(Nc2ccc(C3CCN(C4COC4)CC3)cn2)c1=O` [Example 265, 2-(5-Fluoro-2-(hydroxymethyl)-3-(1-methyl-5-(5-(1-(oxetan-3-yl)piperidin-4-yl)pyridin-2-ylamino)-6-oxo-1,6-dihydropyridin-3-yl)phenyl)-3,4,6,7,8,9-hexahydropyrazino[1,2-a]indol-1(2H)-one], under “Table 2”, the half-maximal inhibitory concentration (IC50) was 2.8 nM. Against the preceding compound, the IC50 is about 1.8-fold lower.

In the case of `CN1CC(c2ccc(Nc3cc(-c4cc(F)cc(N5CCn6c(cc7c6CC(C)(C)C7)C5=O)c4CO)cn(C)c3=O)nc2)C1` [Example 271, 10-[5-Fluoro-2-(hydroxymethyl)-3-(1-methyl-5-{[5-(1-methylazetidin-3-yl)pyridine-2-yl]amino}-6-oxo-1,6-dihydropyridin-3-yl)phenyl]-4,4-dimethyl-1,10-diazatricyclo[6.4.0.0^2,6]dodeca-2(6),7-dien-9-one], for the setting “Table 2”, the midpoint of inhibition, the IC50, lay at 4.7 nM.

Where the note is “Table 2”, `Cn1cc(-c2cc(F)cc(N3CCn4c(cc5c4CC(C)(C)C5)C3=O)c2CO)cc(Nc2ccc(CN3CCOCC3)cn2)c1=O` [Example 274, 10-[5-Fluoro-2-(hydroxymethyl)-3-(1-methyl-5-{[5-(morpholin-4-ylmethyl)pyridine-2-yl]amino}-6-oxo-1,6-dihydropyridin-3-yl)phenyl]-4,4-dimethyl-1,10-diazatricyclo[6.4.0.0^2,6]dodeca-2(6),7-dien-9-one] showed an IC50 of 2.34 nM.

In turn, `Cc1cc(Nc2cc(-c3cc(F)cc(N4CCn5c(cc6c5CC(C)(C)C6)C4=O)c3CO)cn(C)c2=O)n[nH]1` [Example 276, 10-[5-Fluoro-2-(hydroxymethyl)-3-{1-methyl-5-[(5-methyl-1H-pyrazol-3-yl)amino]-6-oxo-1,6-dihydropyridin-3-yl}phenyl]-4,4-dimethyl-1,10-diazatricyclo[6.4.0.0^2,6]dodeca-2(6),7-dien-9-one] gave an IC50 (Table 2) of 2.2 nM.

As to `CN1CCC(c2ccc(Nc3nc(-c4cc(F)cc(N5CCc6c(sc7c6CC(C)(C)C7)C5=O)c4CO)cn(C)c3=O)cc2)CC1` [Example 278, 10-[5-Fluoro-2-(hydroxymethyl)-3-(4-methyl-6-{[4-(1-methylpiperidin-4-yl)phenyl]amino}-5-oxo-4,5-dihydropyrazin-2-yl)phenyl]-4,4-dimethyl-7-thia-10-azatricyclo[6.4.0.0^2,6]dodeca-1(8),2(6)-dien-9-one], the IC50 (Table 2) was 2.6 nM.

Consider `CN1CCC(c2ccc(Nc3nc(-c4cc(F)cc(N5CCc6c(sc7c6CCCC7)C5=O)c4CO)cn(C)c3=O)cc2)CC1` [Example 281, 5-[5-Fluoro-2-(hydroxymethyl)-3-(4-methyl-6-{[4-(1-methylpiperidin-4-yl)phenyl]amino}-5-oxo-4,5-dihydropyrazin-2-yl)phenyl]-8-thia-5-azatricyclo[7.4.0.0^2,7]trideca-1(9),2(7)-dien-6-one], for which 5.2 nM corresponded to half-maximal inhibition (Table 2) (IC50). This IC50 is about 2-fold higher than that of the compound before.

Under “Table 2”, `CN1CCC(c2ccc(Nc3nc(-c4cc(F)cc(N5CCn6c(cc7c6CCCC7)C5=O)c4CO)cn(C)c3=O)cc2)CC1` [Example 282, 2-(5-Fluoro-2-(hydroxymethyl)-3-(4-methyl-6-(4-(1-methylpiperidin-4-yl)phenylamino)-5-oxo-4,5-dihydropyrazin-2-yl)phenyl)-3,4,6,7,8,9-hexahydropyrazino[1,2-a]indol-1(2H)-one] came in with a 50% inhibitory concentration (IC50) of 4 nM.

As to `CN1CCc2cc(Nc3nc(-c4cc(F)cc(N5CCn6c(cc7c6CCCC7)C5=O)c4CO)cn(C)c3=O)ccc2C1` [Example 283, 2-(5-Fluoro-2-(hydroxymethyl)-3-(4-methyl-6-(2-methyl-1,2,3,4-tetrahydroisoquinolin-6-ylamino)-5-oxo-4,5-dihydropyrazin-2-yl)phenyl)-3,4,6,7,8,9-hexahydropyrazino[1,2-a]indol-1(2H)-one], under “Table 2”, half-maximal inhibition (IC50) was put at 8.1 nM.

In turn, `CN1CCC[C@@H]1c1ccc(Nc2cc(-c3cc(F)cc(N4CCn5c(cc6c5CC(C)(C)C6)C4=O)c3CO)cn(C)c2=O)nc1` [Example 291, 10-[5-Fluoro-2-(hydroxymethyl)-3-[1-methyl-5-({5-[(2R)-1-methylpyrrolidin-2-yl]pyridine-2-yl}amino)-6-oxo-1,6-dihydropyridin-3-yl]phenyl]-4,4-dimethyl-1,10-diazatricyclo[6.4.0.0^2,6]dodeca-2(6),7-dien-9-one] returned an IC50 (Table 2) of 1.74 nM. Compared with the last compound, the IC50 is about 4.7-fold lower.

Under “Table 2”, `Cn1cc(-c2cc(F)cc(N3CCn4c(cc5c4CC(C)(C)C5)C3=O)c2CO)cc(Nc2ccc3c(n2)CCN(C2COC2)C3)c1=O` [Example 292, 10-[5-Fluoro-2-(hydroxymethyl)-3-(1-methyl-5-{[6-(oxetan-3-yl)-5,6,7,8-tetrahydro-1,6-naphthyridin-2-yl]amino}-6-oxo-1,6-dihydropyridin-3-yl)phenyl]-4,4-dimethyl-1,10-diazatricyclo[6.4.0.0^2,6]dodeca-2(6),7-dien-9-one] displayed a half-inhibitory concentration (IC50) of 11.6 nM.

As for `CN1CC(Oc2ccc(Nc3cc(-c4cc(F)cc(N5CCn6c(cc7c6CCCC7)C5=O)c4CO)cn(C)c3=O)nc2)C1` [Example 293, 2-(5-Fluoro-2-(hydroxymethyl)-3-(1-methyl-5-(5-(1-methylazetidin-3-yloxy)pyridin-2-ylamino)-6-oxo-1,6-dihydropyridin-3-yl)phenyl)-3,4,6,7,8,9-hexahydropyrazino[1,2-a]indol-1(2H)-one], for the setting “Table 2”, the half-inhibitory concentration (IC50) came out at 9.8 nM.

Consider `CN1CCC(c2ccc(Nc3nc(-c4cc(F)cc(N5CCn6c(cc7c6CC(C)(C)C7)C5=O)c4CO)cn(C)c3=O)cc2)CC1` [Example 294, 10-[5-Fluoro-2-(hydroxymethyl)-3-(4-methyl-6-{[4-(1-methylpiperidin-4-yl)phenyl]amino}-5-oxo-4,5-dihydropyrazin-2-yl)phenyl]-4,4-dimethyl-1,10-diazatricyclo[6.4.0.0^2,6]dodeca-2(6),7-dien-9-one], for which the IC50 (Table 2) worked out at 16 nM.

`CN(C)CCOc1ccc(Nc2cc(-c3cc(F)cc(N4CCn5c(cc6c5CCCC6)C4=O)c3CO)cn(C)c2=O)nc1` [Example 297, 2-(3-(5-(5-(2-(Dimethylamino)ethoxy)pyridin-2-ylamino)-1-methyl-6-oxo-1,6-dihydropyridin-3-yl)-5-fluoro-2-(hydroxymethyl)phenyl)-3,4,6,7,8,9-hexahydropyrazino[1,2-a]indol-1(2H)-one]: the IC50 (Table 2) came out at 4.2 nM. Against the preceding compound, the IC50 is about 3.8-fold lower.

With `CN1CC(c2ccc(Nc3nc(-c4cc(F)cc(N5CCc6c(sc7c6CC(C)(C)C7)C5=O)c4CO)cn(C)c3=O)cc2)C1` [Example 298, 10-[5-fluoro-2-(hydroxymethyl)-3-(4-methyl-6-{[4-(1-methylazetidin-3-yl)phenyl]amino}-5-oxopyrazin-2-yl)phenyl]-4,4-dimethyl-7-thia-10-azatricyclo[6.4.0.0^2,6]dodeca-1(8),2(6)-dien-9-one], the IC50 (Table 2) is 5.3 nM.

`Cn1cc(-c2cccc(N3CCn4c(cc5c4CCCC5)C3=O)c2CO)cc(Nc2ccc(N3CCNCC3)cn2)c1=O` [Example 301, 2-(2-(Hydroxymethyl)-3-(1-methyl-6-oxo-5-(5-(piperazin-1-yl)pyridin-2-ylamino)-1,6-dihydropyridin-3-yl)phenyl)-3,4,6,7,8,9-hexahydropyrazino[1,2-a]indol-1(2H)-one] gave a half-inhibitory concentration (IC50) (Table 2) of 6.1 nM.

The term IC50 denotes the point on the concentration scale where inhibition reaches its midpoint. A low value points to higher potency.
